Experimental findings from the supplement of paper PMC8967900 are described below.

The structures appear in SMILES notation.
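Note: ALL cell lines in 384-well plates, five doses spanning 10,000-fold, each plate scaled between vehicle and 100 µmol/L benzalkonium chloride controls, sDSS an adapted area-under-curve metric.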

The first assay relates to CCRF-CEM. As to the kind of experiment: selective drug sensitivity score (sDSS, relative to normal bone marrow) (sDSS (score)); higher = more potent and effective on the cell line relative to normal bone marrow cells. Particulars: 72 h.
Turning to `O=c1sn(-c2cccc3ccccc23)c(=O)n1Cc1ccccc1` [Tideglusib] (top concentration 3000 nM), the “selective drug sensitivity score” value is -0.3.
Still for that read-out and setting: the figure for `COc1cc2nccc(Oc3ccc(NC(=O)Nc4cc(C)on4)c(Cl)c3)c2cc1OC` [Tivozanib] (top concentration 10000 nM) is 1.26; for `Cc1cc(Nc2cc(N3CCN(C)CC3)nc(Sc3ccc(NC(=O)C4CC4)cc3)n2)n[nH]1` [Tozasertib] (top concentration 10000 nM) it is 21.6.
Regarding `CC1=C(/C=C/C(C)=C/C=C/C(C)=C/C(=O)O)C(C)(C)CCC1` [Tretinoin] (top concentration 10000 nM), the “selective drug sensitivity score” value was -2.3.
Same read-out and setting: with `COC(=O)c1ccc2c(c1)[nH]c1ncnc(NCCCN3CCCCC3)c12` [UM729] (top concentration 10000 nM) the figure was 3.84.
Same read-out and setting: the figure for `COc1cc2c(NC3CCN(C(C)C)CC3)nc(N3CCC(F)(F)CC3)nc2cc1OCCCN1CCCC1` [UNC0642] (top concentration 10000 nM) is -0.54; for `O=C(c1ccc(C(=O)N2CCC(N3CCCC3)CC2)c(Nc2ccccc2)c1)N1CCC(N2CCCC2)CC1` [UNC1215] (top concentration 10000 nM) it is 0.
The same measure, in the same setting: with `CCCC(CCC)C(=O)O` [Valproic_acid] (top concentration 1000000 nM) the figure was 0.
`Clc1ccc(Nc2nnc(Cc3ccncc3)c3ccccc23)cc1` [Vatalanib] (top concentration 10000 nM): the “selective drug sensitivity score” value is 0.
Same read-out and setting: the figure for `CCCS(=O)(=O)Nc1ccc(F)c(C(=O)c2c[nH]c3ncc(-c4ccc(Cl)cc4)cc23)c1F` [Vemurafenib] (top concentration 10000 nM) is 3.46.

In another assay the test system is CCRF-HSB2. The assay is described as above. Particulars: 72 h.
As to `NCCNc1ccc(NCCN)c2c1C(=O)c1ccncc1C2=O` [Pixantrone] (top concentration 10000 nM), the “selective drug sensitivity score” value is -2.16.
The same measure, in the same setting: the figure for `c1cc(CN2CCCNCCNCCCNCC2)ccc1CN1CCCNCCNCCCNCC1` [Plerixafor] (top concentration 10000 nM) is 0.
Same read-out and setting: with `O=C(c1ccc(OCCN2CCCCC2)cc1)c1c(-c2ccc(O)cc2)sc2cc(O)ccc12` [Raloxifene] (top concentration 10000 nM) the figure was 2.42; with `CN(C)C(=O)c1cc2cnc(Nc3ccc(N4CCNCC4)cn3)nc2n1C1CCCC1` [Ribociclib] (top concentration 10000 nM), 1.48; with `CN1CCN(CCOc2cc(OC3CCOCC3)c3c(Nc4c(Cl)ccc5c4OCO5)ncnc3c2)CC1` [Saracatinib] (top concentration 10000 nM), 28.9.
Turning to `C=CC(=O)Nc1cccc(Nc2nc(Nc3ccc(OCCOC)cc3)ncc2F)c1` [Spebrutinib] (top concentration 1000 nM), the “selective drug sensitivity score” value was 0.04.
Same read-out and setting: with `C[C@@H]1CN(Cc2ccc(F)cc2)[C@@H](C)CN1C(=O)c1cc2c(C(=O)C(=O)N(C)C)cn(C)c2cc1Cl` [Talmapimod] (top concentration 10000 nM) the figure was 0; with `C[C@@H](C(=O)O)c1ccc(-c2ccccc2)c(F)c1` [Tarenflurbil] (top concentration 10000 nM), -0.16; with `CNC(=O)c1cc(COc2nnc(Nc3ccc(Cl)cc3)c3ccoc23)ccn1` [Telatinib] (top concentration 10000 nM), 0.
The same measure, in the same setting: the figure for `O=c1sn(-c2cccc3ccccc23)c(=O)n1Cc1ccccc1` [Tideglusib] (top concentration 3000 nM) is -0.3; for `COc1cc2nccc(Oc3ccc(NC(=O)Nc4cc(C)on4)c(Cl)c3)c2cc1OC` [Tivozanib] (top concentration 10000 nM) it is 17.9.
Turning to `Cc1cc(Nc2cc(N3CCN(C)CC3)nc(Sc3ccc(NC(=O)C4CC4)cc3)n2)n[nH]1` [Tozasertib] (top concentration 10000 nM), the “selective drug sensitivity score” value is 21.9.
Take `CC1=C(/C=C/C(C)=C/C=C/C(C)=C/C(=O)O)C(C)(C)CCC1` [Tretinoin] (top concentration 10000 nM): the “selective drug sensitivity score” value was -2.4.
Same read-out and setting: the figure for `COC(=O)c1ccc2c(c1)[nH]c1ncnc(NCCCN3CCCCC3)c12` [UM729] (top concentration 10000 nM) is 2.84; for `COc1cc2c(NC3CCN(C(C)C)CC3)nc(N3CCC(F)(F)CC3)nc2cc1OCCCN1CCCC1` [UNC0642] (top concentration 10000 nM) it is -0.54.
Take `O=C(c1ccc(C(=O)N2CCC(N3CCCC3)CC2)c(Nc2ccccc2)c1)N1CCC(N2CCCC2)CC1` [UNC1215] (top concentration 10000 nM): the “selective drug sensitivity score” value amounted to 0.
Same read-out and setting: with `CCCC(CCC)C(=O)O` [Valproic_acid] (top concentration 1000000 nM) the figure was 0.
The same measure, in the same setting: with `Clc1ccc(Nc2nnc(Cc3ccncc3)c3ccccc23)cc1` [Vatalanib] (top concentration 10000 nM) the figure was 1.1; with `CCCS(=O)(=O)Nc1ccc(F)c(C(=O)c2c[nH]c3ncc(-c4ccc(Cl)cc4)cc23)c1F` [Vemurafenib] (top concentration 10000 nM), 4.06.

A further assay has as its system COG-LL-394h. Described as above. Particulars: 72 h.
In the case of `NCCNc1ccc(NCCN)c2c1C(=O)c1ccncc1C2=O` [Pixantrone] (top concentration 10000 nM), the “selective drug sensitivity score” value was -2.66.
Same read-out and setting: with `c1cc(CN2CCCNCCNCCCNCC2)ccc1CN1CCCNCCNCCCNCC1` [Plerixafor] (top concentration 10000 nM) the figure was 0; with `O=C(c1ccc(OCCN2CCCCC2)cc1)c1c(-c2ccc(O)cc2)sc2cc(O)ccc12` [Raloxifene] (top concentration 10000 nM), 0.42; with `CN(C)C(=O)c1cc2cnc(Nc3ccc(N4CCNCC4)cn3)nc2n1C1CCCC1` [Ribociclib] (top concentration 10000 nM), -2.02.
The same measure, in the same setting: the figure for `CN1CCN(CCOc2cc(OC3CCOCC3)c3c(Nc4c(Cl)ccc5c4OCO5)ncnc3c2)CC1` [Saracatinib] (top concentration 10000 nM) is -2.02; for `C=CC(=O)Nc1cccc(Nc2nc(Nc3ccc(OCCOC)cc3)ncc2F)c1` [Spebrutinib] (top concentration 1000 nM) it is -0.16; for `C[C@@H]1CN(Cc2ccc(F)cc2)[C@@H](C)CN1C(=O)c1cc2c(C(=O)C(=O)N(C)C)cn(C)c2cc1Cl` [Talmapimod] (top concentration 10000 nM) it is 0.7.
The same measure, in the same setting: with `C[C@@H](C(=O)O)c1ccc(-c2ccccc2)c(F)c1` [Tarenflurbil] (top concentration 10000 nM) the figure was -0.16; with `CNC(=O)c1cc(COc2nnc(Nc3ccc(Cl)cc3)c3ccoc23)ccn1` [Telatinib] (top concentration 10000 nM), 0.
With `O=c1sn(-c2cccc3ccccc23)c(=O)n1Cc1ccccc1` [Tideglusib] (top concentration 3000 nM), the “selective drug sensitivity score” value is -0.3.
Still for that read-out and setting: the figure for `COc1cc2nccc(Oc3ccc(NC(=O)Nc4cc(C)on4)c(Cl)c3)c2cc1OC` [Tivozanib] (top concentration 10000 nM) is 1.46; for `Cc1cc(Nc2cc(N3CCN(C)CC3)nc(Sc3ccc(NC(=O)C4CC4)cc3)n2)n[nH]1` [Tozasertib] (top concentration 10000 nM) it is 3.36.
Same read-out and setting: with `CC1=C(/C=C/C(C)=C/C=C/C(C)=C/C(=O)O)C(C)(C)CCC1` [Tretinoin] (top concentration 10000 nM) the figure was -2.4; with `COC(=O)c1ccc2c(c1)[nH]c1ncnc(NCCCN3CCCCC3)c12` [UM729] (top concentration 10000 nM), 4.34; with `COc1cc2c(NC3CCN(C(C)C)CC3)nc(N3CCC(F)(F)CC3)nc2cc1OCCCN1CCCC1` [UNC0642] (top concentration 10000 nM), 2.76.
Turning to `O=C(c1ccc(C(=O)N2CCC(N3CCCC3)CC2)c(Nc2ccccc2)c1)N1CCC(N2CCCC2)CC1` [UNC1215] (top concentration 10000 nM), the “selective drug sensitivity score” value turned out to be 0.
On the same count and under the same terms, the figure for `CCCC(CCC)C(=O)O` [Valproic_acid] (top concentration 1000000 nM) is 0.
As to `Clc1ccc(Nc2nnc(Cc3ccncc3)c3ccccc23)cc1` [Vatalanib] (top concentration 10000 nM), the “selective drug sensitivity score” value was 0.
Take `CCCS(=O)(=O)Nc1ccc(F)c(C(=O)c2c[nH]c3ncc(-c4ccc(Cl)cc4)cc23)c1F` [Vemurafenib] (top concentration 10000 nM): the “selective drug sensitivity score” value is -1.14.
